In brackets after ≈: the same amount, converted by molar mass. Several values for one entry are separate records, joined by “and”; a condition that tells them apart may be missing. Equal values may be shown once. Read-outs that look alike come from different tables or passages of the source.
Assays:
[1] = target: H. sapiens IMPDH2 (Homo sapiens, UniProt P12268); assay: IMPDH2 biochemical IC50
[2] = test system: A. baumannii ΔadeJ (efflux-defective); assay: microbe, parasite or virus in culture; format: cell-based; settings: Acinetobacter baumannii, read-out: Avg. MIC
[3] = test system: Mycobacterium tuberculosis H37Rv; assay: MIC, resazurin redox assay; format: cell-based; settings: ATCC 27294 / H37Rv, 192 h, Mycobacterium tuberculosis H37Rv (ATCC27294)
[4] = test system: Proteus mirabilis; assay: MIC, CLSI microdilution; format: cell-based; settings: 20 h; Proteus mirabilis (ATCC29906); M9 + casamino acids + glucose
[5] = target: E. coli GuaB (Escherichia coli, UniProt P0ADG7); assay: GuaB biochemical IC50
[6] = test system: Primary human hepatocytes; assay: in vitro; format: cell-based
Method: (§1) Primary human hepatocytes were plated on 384-well, collagen-coated plates in incubation media with no serum or with 10% fetal bovine serum (FBS). Eighteen hours later, cells were treated with the test article at seven concentrations starting at 100 µM in twofold dilutions, chlorpromazine (positive control) at seven concentrations starting at 100 µM in twofold dilutions or aflatoxin (positive control) at seven concentrations starting at 25 µM in twofold dilutions. Cell viability was then assayed using the Promega Cell TiterGlo ATP Assay.

[7] = in vitro; format: cell-based, human; settings: human
Method: as §1

[8] = test system: Staphylococcus epidermidis; assay: MIC, CLSI microdilution; format: cell-based; settings: Staphylococcus epidermidis RP62A (ATCC35984); RPMI1640
[9] = test system: Staphylococcus aureus; assay: MIC, CLSI microdilution; format: cell-based; settings: NRS 384 / USA300; Staphylococcus aureus USA300 NRS384; RPMI1640
[10] = test system: A. baumannii 19606 (wild-type); assay: microbe, parasite or virus in culture; format: cell-based, Acinetobacter baumannii; settings: for MIC: Acinetobacter baumannii
[11] = test system: Mycobacterium avium; assay: MIC, CLSI microdilution; format: cell-based; settings: 336 h; Mycobacterium avium (ATCC25291); 7H9 + OADC, 14 days
[12] = test system: Enterobacter aerogenes; assay: MIC, CLSI microdilution; format: cell-based; settings: Klebsiella aerogenes, 20 h; Enterobacter aerogenes (ATCC13048); M9 + casamino acids + glucose
[13] = test system: Enterococcus faecium; assay: MIC, CLSI microdilution; format: cell-based; settings: Enterococcus faecium (ATCC700221); RPMI1640
[14] = test system: Bacillus subtilis; assay: MIC, CLSI microdilution; format: cell-based; settings: RPMI1640
[15] = test system: Mycobacterium marinum; assay: MIC, CLSI microdilution; format: cell-based; settings: 7H9 + OADC, 48 h
[16] = test system: Acinetobacter baumannii ATCC19606 GuaB mutants; assay: MIC on GuaBi-resistant A. baumannii 19606 guaB mutants; format: cell-based; settings: for MIC: Acinetobacter baumannii
[17] = target: S. aureus GuaB (Staphylococcus aureus, UniProt P99106); assay: GuaB biochemical IC50
[18] = test system: Escherichia coli; assay: MIC, CLSI microdilution; format: cell-based; settings: 20 h; Escherichia coli UPEC CFT073; M9 + casamino acids + glucose
[19] = test system: Enterococcus faecalis; assay: MIC, CLSI microdilution; format: cell-based; settings: Enterococcus faecalis (ATCC47077); RPMI1640
[20] = test system: Acinetobacter baumannii; assay: MIC, CLSI microdilution; format: cell-based; settings: 20 h, M9 + casamino acids + glucose
[21] = test system: Serratia marcescens; assay: MIC, CLSI microdilution; format: cell-based; settings: 20 h; Serratia marcescens (ATCC29021); M9 + casamino acids + glucose
[22] = test system: Pseudomonas aeruginosa; assay: MIC, CLSI microdilution; format: cell-based; settings: 20 h; Pseudomonas aeruginosa PAO1; M9 + casamino acids + glucose
[23] = test system: Enterobacter cloacae; assay: MIC, CLSI microdilution; format: cell-based; settings: 20 h; Enterobacter cloacae (ATCC222); M9 + casamino acids + glucose
[24] = test system: Klebsiella pneumoniae; assay: MIC, CLSI microdilution; format: cell-based; settings: ATCC43816, 20 h; Klebsiella pneumoniae (ATCC 43816); M9 + casamino acids + glucose
[25] = test system: 41 different cellular targets; assay: Secondary pharmacology panel (Cerep Eurofins); format: binding; settings: for Hits (>50% Binding) / Hits (>75% Binding): 41 targets
[26] = test system: Mycobacterium smegmatis; assay: MIC, CLSI microdilution; format: cell-based; settings: Mycolicibacterium smegmatis; Mycobacterium smegmatis mc2-155; 7H9 + OADC, 48 h
[27] = test system: Stenotrophomonas maltophilia; assay: MIC, CLSI microdilution; format: cell-based; settings: 20 h; Stenotrophomonas maltophilia (ATCC700267); M9 + casamino acids + glucose
[28] = test system: Citrobacter werkmanii; assay: MIC, CLSI microdilution; format: cell-based; settings: 20 h; Citrobacter werkmanii (ATCC51114); M9 + casamino acids + glucose
[29] = target: A. baumannii GuaB (Acinetobacter baumannii, UniProt D0CF46); assay: GuaB biochemical IC50
[30] = test system: A. baumannii ΔlpxA (LPS-null); assay: MIC on LPS-null A. baumannii; format: cell-based; settings: Acinetobacter baumannii, read-out: Avg. MIC
[31] = General cytotoxicity IC50, Serum
[32] = General cytotoxicity IC50, Serum-Free
[33] = 24 h, M9 media + 100µM guanine, 24 hours, read-out: A.b.19606 Average CLSI MIC (n=3)
[34] = 24 h, M9 media, 24 hours, read-out: A.b.19606 Average CLSI MIC (n=3)
[35] = A. baumannii 19606 wild-type (Fig 3D), read-out: Avg. MIC
[36] = guaB allele wild-type, M9 media (cross-resistance table), read-out: A.b.19606 Average CLSI MIC (n=3)
[37] = ATCC19606, read-out: A.b.19606 Average CLSI MIC (n=3), guaB allele P25A, M9 media
[38] = ATCC19606, read-out: A.b.19606 Average CLSI MIC (n=3), guaB allele P25S, M9 media
[39] = ATCC19606, read-out: A.b.19606 Average CLSI MIC (n=3), guaB allele Y445C, M9 media
[40] = ATCC19606, read-out: A.b.19606 Average CLSI MIC (n=3), guaB allele Y445N, M9 media
[41] = ATCC19606, read-out: A.b.19606 Average CLSI MIC (n=3), guaB allele Y445S, M9 media
[42] = resistance allele Y445N, from fluctuation assay

A. baumannii GuaB, sequence (D0CF46 entry or part of it): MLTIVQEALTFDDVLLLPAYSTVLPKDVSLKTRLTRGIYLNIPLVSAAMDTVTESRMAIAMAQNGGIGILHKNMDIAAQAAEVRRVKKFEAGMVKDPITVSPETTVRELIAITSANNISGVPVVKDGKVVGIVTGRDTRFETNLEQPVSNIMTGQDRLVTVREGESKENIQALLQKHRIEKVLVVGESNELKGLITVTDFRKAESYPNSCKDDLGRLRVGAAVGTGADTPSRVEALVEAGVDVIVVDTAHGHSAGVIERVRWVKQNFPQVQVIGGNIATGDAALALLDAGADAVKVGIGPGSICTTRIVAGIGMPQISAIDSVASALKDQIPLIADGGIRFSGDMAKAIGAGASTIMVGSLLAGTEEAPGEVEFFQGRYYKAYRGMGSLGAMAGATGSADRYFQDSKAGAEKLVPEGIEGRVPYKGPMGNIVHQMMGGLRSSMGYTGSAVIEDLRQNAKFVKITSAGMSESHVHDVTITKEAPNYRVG
E. coli GuaB, sequence (P0ADG7 whole entry): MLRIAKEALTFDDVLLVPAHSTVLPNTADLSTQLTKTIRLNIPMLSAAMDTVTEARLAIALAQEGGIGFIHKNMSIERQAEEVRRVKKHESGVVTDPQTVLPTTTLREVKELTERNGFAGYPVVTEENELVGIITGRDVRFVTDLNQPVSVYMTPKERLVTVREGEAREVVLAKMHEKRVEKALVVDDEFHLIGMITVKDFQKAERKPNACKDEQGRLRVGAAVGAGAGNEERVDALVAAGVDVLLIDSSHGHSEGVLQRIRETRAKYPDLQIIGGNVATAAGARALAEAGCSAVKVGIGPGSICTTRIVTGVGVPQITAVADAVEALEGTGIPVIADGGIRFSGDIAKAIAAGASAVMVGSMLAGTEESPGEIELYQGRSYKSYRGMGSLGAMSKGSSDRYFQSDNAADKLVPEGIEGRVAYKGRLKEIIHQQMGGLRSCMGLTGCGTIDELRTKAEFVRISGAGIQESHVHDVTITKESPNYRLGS
S. aureus GuaB, sequence (P99106 whole entry): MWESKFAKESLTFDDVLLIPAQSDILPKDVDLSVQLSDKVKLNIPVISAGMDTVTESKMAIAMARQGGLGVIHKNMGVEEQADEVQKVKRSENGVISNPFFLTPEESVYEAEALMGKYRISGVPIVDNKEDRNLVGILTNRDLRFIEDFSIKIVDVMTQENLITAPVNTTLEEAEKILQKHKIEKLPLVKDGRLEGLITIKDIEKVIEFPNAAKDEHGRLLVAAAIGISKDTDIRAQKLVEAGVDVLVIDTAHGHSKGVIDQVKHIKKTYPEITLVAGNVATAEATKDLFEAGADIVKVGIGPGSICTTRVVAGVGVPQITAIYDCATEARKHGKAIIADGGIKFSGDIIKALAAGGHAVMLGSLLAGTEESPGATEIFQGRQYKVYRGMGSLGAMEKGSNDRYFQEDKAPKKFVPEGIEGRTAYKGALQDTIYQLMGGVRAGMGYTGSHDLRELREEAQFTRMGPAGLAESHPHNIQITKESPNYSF

Q: Which results are given for C[C@@H](Oc1ccc2ncc3c(c2c1)CCOC3)c1cncc(-c2nc(Cl)c[nH]2)c1 [G8, (R)-9-[1-[5-(4-chloro-1H-imidazol-2-yl)-3-pyridyl]ethoxy]-2,4-dihydro-1H-pyrano[3,4 c]quinoline]?
A: IC50 [1]: > 50000 nM; MIC [2]: 0.01 µM (≈ 0.00407 µg/mL); MIC [3]: 0.2 µM (≈ 0.0814 µg/mL); MIC [4]: > 100 µM; IC50 [5]: 8 nM; in vitro safety profile: cytotoxicity [6]: cytotoxicity liabilities; IC50 at 2 day [7, 31]: 19200 nM; IC50 at 2 day [7, 32]: 30200 nM; MIC [8]: 0.004 µM (≈ 0.00163 µg/mL); MIC [9]: 0.01 µM (≈ 0.00407 µg/mL); MIC [10, 33]: > 100 µM; MIC [10, 34]: 0.4 µM (≈ 0.163 µg/mL); MIC [10, 35]: 0.39 µM (≈ 0.159 µg/mL); MIC [10, 36]: 0.3 µM (≈ 0.122 µg/mL); GuaBi CLSI MIC fold change from parent strain ([10]; guaB allele wild-type): 1; MIC [11]: 0.04 µM; MIC [12]: > 100 µM; MIC [13]: 0.03 µM (≈ 0.0122 µg/mL); MIC [14]: 0.05 µM (≈ 0.0203 µg/mL); MIC [15]: 0.03 µM; MIC [16, 37]: 0.8 µM (≈ 0.325 µg/mL); MIC [16, 38]: 0.6 µM (≈ 0.244 µg/mL); MIC [16, 39]: 0.2 µM (≈ 0.0814 µg/mL); MIC [16, 40]: 1.8 µM (≈ 0.732 µg/mL); MIC [16, 41]: 8.3 µM (≈ 3.38 µg/mL); GuaBi CLSI MIC fold change from parent strain ([16]; guaB allele P25A): 3.3; GuaBi CLSI MIC fold change from parent strain ([16]; guaB allele P25S): 2.5; GuaBi CLSI MIC fold change from parent strain ([16]; guaB allele Y445C): 1; GuaBi CLSI MIC fold change from parent strain ([16]; guaB allele Y445N): 7; GuaBi CLSI MIC fold change from parent strain ([16]; guaB allele Y445S): 32; IC50 [17]: 0.21 nM; MIC [18]: > 100 µM; MIC [19]: 0.01 µM (≈ 0.00407 µg/mL); MIC [20]: 1.3 µM; MIC [21]: > 100 µM; MIC [22]: 50 µM; MIC [23]: > 100 µM; MIC [24]: > 100 µM; in vitro safety profile: promiscuity [25]: high promiscuity risk; in vitro safety profile: selectivity [25]: off-target selectivity; Promiscuity Risk ([25]; 50µM): 51%; Selectivity Risk ([25]; 50µM): 17%; Hits (>50% Binding) ([25]; 50µM): 21; Hits (>75% Binding) ([25]; 50µM): 7; MIC [26]: 0.02 µM; MIC [27]: 5 µM; MIC [28]: > 100 µM; IC50 [29]: 0.14 nM; MIC [30]: 0.007 µM (≈ 0.00285 µg/mL)

Q: What does the source list for C[C@H](Nc1ccc2ncc3c(c2c1)CCOC3)C(=O)Nc1ccc(Cl)nc1 [G1, (2S)-N-(6-chloro-3-pyridyl)-2-(2,4-dihydro-1H-pyrano[3,4-c]quinolin-9 ylamino)propanamide]?
A: IC50 [1]: > 50000 nM; MIC [2]: 0.016 µM (≈ 0.00613 µg/mL); MIC [3]: 0.3 µM (≈ 0.115 µg/mL); MIC [4]: > 100 µM; IC50 [5]: 480 nM; in vitro safety profile: cytotoxicity [6]: low cytotoxicity; IC50 at 2 day [7, 31]: > 100000 nM; IC50 at 2 day [7, 32]: > 100000 nM; MIC [8]: 0.03 µM (≈ 0.0115 µg/mL); MIC [9]: 0.1 µM (≈ 0.0383 µg/mL); MIC [10, 33]: > 100 µM; MIC [10, 34]: 1 µM (≈ 0.383 µg/mL); MIC [10, 35]: 0.69 µM (≈ 0.264 µg/mL); MIC [10, 36]: 0.5 µM (≈ 0.191 µg/mL); GuaBi CLSI MIC fold change from parent strain ([10]; guaB allele wild-type): 1; MIC [11]: 0.8 µM; MIC [12]: > 100 µM; MIC [13]: 1 µM (≈ 0.383 µg/mL); MIC [14]: 1.2 µM (≈ 0.459 µg/mL); MIC [15]: 0.01 µM; MIC [16, 37]: 6.3 µM (≈ 2.41 µg/mL); MIC [16, 38]: 2.6 µM (≈ 0.995 µg/mL); MIC [16, 39]: 1.6 µM (≈ 0.613 µg/mL); MIC [16, 40]: 41.7 µM (≈ 16 µg/mL); MIC [16, 41]: > 100 µM; MIC ([16]; ATCC19606, read-out: MIC of resistant mutant, resistance allele Y445N, from fluctuation assay): 50 µM; MIC ([16]; ATCC19606, read-out: MIC of resistant mutant, resistance allele Y445S, from fluctuation assay): 50 µM; shifts in MIC conferred by on-target mutations ([16]; GuaBi-resistant mutants): ≥ 32 fold; GuaBi CLSI MIC fold change from parent strain ([16]; guaB allele P25A): 12; GuaBi CLSI MIC fold change from parent strain ([16]; guaB allele P25S): 5; GuaBi CLSI MIC fold change from parent strain ([16]; guaB allele Y445C): 3; GuaBi CLSI MIC fold change from parent strain ([16]; guaB allele Y445N): 80; GuaBi CLSI MIC fold change from parent strain ([16]; guaB allele Y445S): >200; Fold shift in MIC vs parental wild-type [16, 42]: 64, 64 and 64; MIC of resistant mutant [16, 42]: 50 µM; Fold shift in MIC vs parental wild-type ([16]; resistance allele Y445S, from fluctuation assay): 64, 64; IC50 [17]: 0.38 nM; MIC [18]: > 100 µM; MIC [19]: 0.2 µM (≈ 0.0766 µg/mL); MIC [20]: 0.5 µM; MIC [21]: > 100 µM; MIC [22]: 100 µM; MIC [23]: > 100 µM; MIC [24]: > 100 µM; in vitro safety profile: promiscuity [25]: low promiscuity; in vitro safety profile: selectivity [25]: good selectivity; Promiscuity Risk ([25]; 10µM): 0%; Selectivity Risk ([25]; 10µM): 0%; Hits (>50% Binding) ([25]; 10µM): 0; Hits (>75% Binding) ([25]; 10µM): 0; MIC [26]: 0.01 µM; MIC [27]: 14 µM; MIC [28]: > 100 µM; IC50 [29]: 0.26 nM; MIC [30]: 0.025 µM (≈ 0.00957 µg/mL)

Reference: paper PMC11481871, “Discovery of GuaB inhibitors with efficacy against Acinetobacter baumannii infection” (mBio, 2024)
